Reference: patent US20210275640A1, “METHODS FOR ENHANCING PERMEABILITY TO BLOOD-BRAIN BARRIER, AND USES THEREOF” (ACADEMIA SINICA, priority 2014, published 2021)
Values joined by “and” are separate entries in the source; they are usually repeats but may differ in a detail not shown here. Identical values can stand only once. Like-named read-outs stand apart in the source and are kept apart here.

How the values were obtained:
[1] = system: U-87MG glioblastoma xenograft; conditions: for Median Survival: VEGF 0.3 μg/kg where given
Description: The human luciferase-expressing glioblastoma cell line U-87MG was used for all GBM experiments. Cells were routinely cultured in EMEM with 10% FBS, at 37° C. with 5% CO2.
BALB/c nude mice were orthotropically xenografted with U87 glioma cells (2×10^5) by stereotactic (2 mm right and 1 mm posterior to the bregma, 3.5 mm deep from the dura) injection into the brain. Mouse tumor progression was measured by IVIS at different time points (0, 1, 3, 7 . . . every 7 days until 60 days).
The DNA methylating drug temozolomide (TMZ) was used as therapy for GBM model mice. […] Tumor growth was monitored by in vivo bioluminescent imaging. Mice were observed over 60 days and their survival rates recorded on a Kaplan-Meier survival curve.

[2] = system: blood-brain barrier (BBB); assay: Penetration of PEGylated fluorescent nanoparticles through the BBB (IVIS, immunohistochemistry); type: in vivo, FVB mice; conditions: 0.3 μg/Kg VEGF iv 45 min before PEGylated nanoparticles
Source text: COOH-modified nanoparticles (20 to 500 nm) were covalently modified with methoxy (MeO)-PEG-amine (NH2) according to previously published protocols (Nance et al., Sci Transl Med 4(149): 149ra119; 2012). PEGylated fluorescent nanoparticles of 20 nm, 100 nm and 500 nm were used to investigate the biodistribution and extravasation after intravenous injection and perfusion into FVB mice. These nanoparticles were quantified by IVIS and immunohistochemistry.
All IVIS images were taken using a Xenogen IVIS Spectrum device (PerkinElmer, Waltham, Mass.).
The mice were subjected to perfusion following routine procedures 30 minutes after injection of the nanoparticles and the brain tissues were analyzed by IVIS imaging and immunohistochemistry. FIG. 2, panel A. The amount of nanoparticles accumulated in the brain tissue (i.e., across the BBB) was determined by measuring the intensity of the fluorescent signals. Results are illustrated in FIG. 2, panels B-D.

[3] = system: MCAO ischaemic stroke model; assay: Middle Cerebral Artery Occlusion (MCAO) model, hMSC cell therapy with VEGF pre-treatment; type: in vivo, rats
Source text: The procedure published by Boyko and colleagues (Boyko, et al., Journal of Neuroscience Methods 193(2): 246-253; 2010) was used to create a middle cerebral artery occlusion (MCAO) model in rats. In brief, the left side carotid bifurcation was exposed with a self-retractor. After carefully separating the […] (ICA) from peripheral soft tissue, a small opening was created at the proximal ICA. Silicon-coated 4-0 monofilament nylon was inserted from the opening and penetrated forward to the beginning of middle cerebral artery (MCA). An O2C oximeter was used to transcranially monitor the ipsilateral MCA blood flow. Once blood flow decreased successfully, the nylon suture was fixed in situ, mimicking ischaemic stroke. After 90 minutes of ischaemic injury, the suture was removed, allowing reperfusion. A stable and reproducible cerebral infarction could be created with this procedure. […] MCAO model rats were divided into four groups: […] Discosoma sp. Red (Ds-Red)-expressing human mesenchymal stem cells (hMSCs) were used for MCAO cell therapy. […] To evaluate the infarction size, rats were sacrificed three days after ischaemic-reperfusion injury and treatment. […] Brain slices were then scanned and the infarction size was calculated by measuring the pale area with ImageJ software. […]

[4] = system: U87 MG human glioblastoma xenograft; assay: Effect of intravenous VEGF on tumor luminescence in U87 MG intracranial xenograft (IVIS); type: in vivo, BALB/c NU mice; conditions: paired t-test per mouse
[5] = system: blood-brain barrier (BBB)
[6] = system: blood-brain barrier (BBB); remark: listed apart in the source

Compound: Cn1nnc2c(C(N)=O)ncn2c1=O [TMZ, temozolomide]
- Delay of GBM growth ([1]; 5 mg/kg TMZ, vs GBM mice not treated by TMZ): at least 20 days
- Median Survival vs vehicle (% increase) ([1]; GBM mice, TMZ 5 mg/kg): 31.58 % increase
- Median Survival ([1]; GBM mice, TMZ 5 mg/kg): 50 days
- Median Survival vs vehicle (% increase) ([1]; GBM mice, TMZ 20 mg/kg): 31.58 % increase
- Median Survival ([1]; GBM mice, TMZ 20 mg/kg): 50 days

Compound: vascular endothelial growth factor [VEGF]
- Nanoparticles crossing the BBB (fluorescence intensity in brain) [2]: facilitated the nanoparticles to cross BBB
- Brain infarction ([3]; MCAO, VEGF pre-treatment 0.3 μg/kg): reduced the brain infarction
- hMSCs delivered to the brain (Ds-Red fluorescent intensity) ([3]; hMSCs 35 min after 0.3 μg/kg VEGF, vs control): more hMSCs were delivered to the brain
- Change of tumor size from D21 to D27 [4]: tumors were larger
- Persistence of increased BBB permeability ([5]; 0.3 μg/kg VEGF): at least 60 min
- Time of maximum BBB permeability after VEGF ([5]; 0.3 μg/kg VEGF): about 45 min
- Time after VEGF injection at which significant BBB permeability increase was observed ([5]; 0.3 μg/kg VEGF, EB injected after VEGF): 15 min
- Time to return to normal BBB permeability ([5]; after VEGF administration): 2 h
- Duration of increased BBB permeability ([5]; low dose VEGF): about 1 hr
- BBB permeability of EB (Evans Blue content of brain tissue) ([5]; mice, VEGF 0.1-2.0 μg/kg, vs saline control): increased BBB permeability
- Time of peak BBB permeability after VEGF administration ([5]; summary statement): 45 min
- Increase of BBB permeability ([5]; temporary increase after VEGF administration): approximately three-fold
- Median Survival with VEGF vs TMZ alone (% increase) ([1]; GBM mice, TMZ 5 mg/kg): 10 % increase
- Delay in tumor growth by TMZ with VEGF pre-treatment ([1]; VEGF 0.3 μg/kg before 5 mg/kg TMZ): further enhanced the delay in tumor growth
- Cortex, signal to noise ratio T1WI Post-iv ([6]; 5 minutes after 0.2 mmol/kg gadolinium contrast agent, given 45 min after VEGF): 58.30
- Increase % of signal to noise ratio (detectable level of gadolinium contrast agent in brain) ([6]; average, VEGF 0.3 ug/kg pre-treatment): 15.5%
- Signal to noise ratio (SNR) enhancement, individual mice ([6]; each of the 3 VEGF-treated mice): 17% and 14% and 15.5%
